Legend:
[1] = molecular target: Cyclin-dependent kinase 5/CDK5 activator 1 (Homo sapiens) (UniProt Q00535+Q15078); experiment: CDK5/p35 Invitrogen kinase panel; type: protein-complex assay; settings: Compound concentration 10.0 uM
[2] = molecular target: Epidermal growth factor receptor (Homo sapiens) (UniProt P00533); experiment: EGFR Invitrogen kinase panel; settings: Compound concentration 10.0 uM
[3] = molecular target: Mitogen-activated protein kinase 12 (Homo sapiens) (UniProt P53778); experiment: p38gamma Invitrogen kinase panel; settings: Compound concentration 10.0 uM
[4] = molecular target: Serine/threonine-protein kinase Nek2 (Homo sapiens) (UniProt P51955); experiment: NEK2 Invitrogen kinase panel; settings: Compound concentration 10.0 uM
Sequence of Serine/threonine-protein kinase Nek2 (Homo sapiens) (P51955 whole entry): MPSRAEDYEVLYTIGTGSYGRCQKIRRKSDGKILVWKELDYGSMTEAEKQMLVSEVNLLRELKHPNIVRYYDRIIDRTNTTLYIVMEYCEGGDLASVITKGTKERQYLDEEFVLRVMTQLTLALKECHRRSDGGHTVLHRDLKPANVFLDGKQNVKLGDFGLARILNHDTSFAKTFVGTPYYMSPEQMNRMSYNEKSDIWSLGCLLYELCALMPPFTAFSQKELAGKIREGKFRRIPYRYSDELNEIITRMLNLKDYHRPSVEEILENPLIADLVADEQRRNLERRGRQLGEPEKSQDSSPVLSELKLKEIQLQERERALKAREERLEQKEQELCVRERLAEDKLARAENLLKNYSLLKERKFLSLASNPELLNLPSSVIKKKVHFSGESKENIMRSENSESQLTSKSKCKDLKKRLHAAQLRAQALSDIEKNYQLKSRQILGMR

[5] = molecular target: T1, Peroxisome proliferator-activated receptor gamma (Homo sapiens) (UniProt P37231); experiment: (§1) PPARgamma In-house nuclear receptor screen; settings: Compound concentration 3.0 uM
T1 sequence (whole entry): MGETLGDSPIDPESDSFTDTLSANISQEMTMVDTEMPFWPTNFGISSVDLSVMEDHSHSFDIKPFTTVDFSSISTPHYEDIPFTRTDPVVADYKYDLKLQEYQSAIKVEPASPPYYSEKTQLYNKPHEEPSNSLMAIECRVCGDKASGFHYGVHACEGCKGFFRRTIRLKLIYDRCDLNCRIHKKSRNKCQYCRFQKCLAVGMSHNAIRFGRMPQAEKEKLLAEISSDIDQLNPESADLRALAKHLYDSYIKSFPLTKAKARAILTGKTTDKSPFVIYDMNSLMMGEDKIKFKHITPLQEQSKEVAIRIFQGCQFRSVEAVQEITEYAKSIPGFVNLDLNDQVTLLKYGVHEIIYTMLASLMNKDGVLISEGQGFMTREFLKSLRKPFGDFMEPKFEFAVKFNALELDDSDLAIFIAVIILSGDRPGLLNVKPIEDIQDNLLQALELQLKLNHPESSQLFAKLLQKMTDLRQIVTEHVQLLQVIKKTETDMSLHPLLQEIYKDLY

[6] = molecular target: Peroxisome proliferator-activated receptor gamma (Homo sapiens, UniProt P37231); experiment: as §1
[7] = molecular target: Estrogen receptor beta (Homo sapiens) (UniProt Q92731); experiment: ERbeta In-house nuclear receptor screen; settings: Compound concentration 3.0 uM
Sequence of Estrogen receptor beta (Homo sapiens) (Q92731 whole entry): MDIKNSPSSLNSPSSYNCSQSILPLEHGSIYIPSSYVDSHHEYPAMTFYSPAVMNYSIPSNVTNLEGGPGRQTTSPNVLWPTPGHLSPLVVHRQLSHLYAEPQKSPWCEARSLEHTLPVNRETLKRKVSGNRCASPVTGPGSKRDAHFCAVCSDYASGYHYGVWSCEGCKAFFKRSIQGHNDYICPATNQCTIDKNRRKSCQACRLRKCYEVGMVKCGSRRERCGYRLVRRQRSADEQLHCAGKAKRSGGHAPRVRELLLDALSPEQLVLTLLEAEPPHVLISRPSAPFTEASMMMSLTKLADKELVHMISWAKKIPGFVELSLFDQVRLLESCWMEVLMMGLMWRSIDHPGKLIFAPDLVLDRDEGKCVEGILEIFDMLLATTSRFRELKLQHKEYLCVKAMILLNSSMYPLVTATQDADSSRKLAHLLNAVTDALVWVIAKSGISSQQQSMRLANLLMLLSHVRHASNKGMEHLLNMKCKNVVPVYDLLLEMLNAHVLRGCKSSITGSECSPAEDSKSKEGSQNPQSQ

[8] = molecular target: Histamine H1 receptor (Homo sapiens) (UniProt P35367); experiment: H1 (h) CEREP screen; settings: Compound concentration 1.0 uM
Sequence of Histamine H1 receptor (Homo sapiens) (P35367 whole entry): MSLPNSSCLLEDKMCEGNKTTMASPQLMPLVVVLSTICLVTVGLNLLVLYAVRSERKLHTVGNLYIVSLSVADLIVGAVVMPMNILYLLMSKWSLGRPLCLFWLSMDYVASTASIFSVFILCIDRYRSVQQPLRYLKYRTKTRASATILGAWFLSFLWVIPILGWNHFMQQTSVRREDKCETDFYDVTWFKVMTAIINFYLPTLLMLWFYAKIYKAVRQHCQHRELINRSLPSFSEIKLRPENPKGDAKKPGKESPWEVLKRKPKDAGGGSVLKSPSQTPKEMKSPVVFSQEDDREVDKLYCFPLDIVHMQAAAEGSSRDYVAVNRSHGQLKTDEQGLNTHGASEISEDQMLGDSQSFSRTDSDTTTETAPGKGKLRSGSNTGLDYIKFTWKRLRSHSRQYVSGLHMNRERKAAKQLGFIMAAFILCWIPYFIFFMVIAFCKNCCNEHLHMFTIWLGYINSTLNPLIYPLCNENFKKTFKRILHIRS

[9] = molecular target: Melanocortin receptor 4 (Homo sapiens) (UniProt P32245); experiment: MC4 (h) CEREP screen; settings: Compound concentration 10.0 uM
[10] = molecular target: Muscarinic acetylcholine receptor M3 (Homo sapiens) (UniProt P20309); experiment: M3 (h) CEREP screen
Sequence of Muscarinic acetylcholine receptor M3 (Homo sapiens) (P20309 whole entry, looked up): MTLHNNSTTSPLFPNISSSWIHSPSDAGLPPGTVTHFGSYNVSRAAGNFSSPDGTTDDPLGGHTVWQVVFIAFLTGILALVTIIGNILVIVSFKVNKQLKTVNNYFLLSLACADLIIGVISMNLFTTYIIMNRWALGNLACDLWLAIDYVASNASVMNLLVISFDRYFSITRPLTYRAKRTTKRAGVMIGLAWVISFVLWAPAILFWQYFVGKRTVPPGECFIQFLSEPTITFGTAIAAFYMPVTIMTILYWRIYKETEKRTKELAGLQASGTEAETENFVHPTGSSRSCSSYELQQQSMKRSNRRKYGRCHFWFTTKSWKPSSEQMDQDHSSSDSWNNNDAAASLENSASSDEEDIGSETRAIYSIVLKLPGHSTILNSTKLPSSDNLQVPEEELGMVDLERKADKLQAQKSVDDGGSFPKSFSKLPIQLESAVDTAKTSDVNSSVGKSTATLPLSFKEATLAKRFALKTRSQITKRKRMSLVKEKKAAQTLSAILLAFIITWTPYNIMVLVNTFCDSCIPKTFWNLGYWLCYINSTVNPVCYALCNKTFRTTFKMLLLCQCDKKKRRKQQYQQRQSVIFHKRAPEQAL

[11] = molecular target: Substance-K receptor (Homo sapiens) (UniProt P21452); experiment: NK2 (h) CEREP screen; settings: Compound concentration 10.0 uM
Sequence of Substance-K receptor (Homo sapiens) (P21452 whole entry): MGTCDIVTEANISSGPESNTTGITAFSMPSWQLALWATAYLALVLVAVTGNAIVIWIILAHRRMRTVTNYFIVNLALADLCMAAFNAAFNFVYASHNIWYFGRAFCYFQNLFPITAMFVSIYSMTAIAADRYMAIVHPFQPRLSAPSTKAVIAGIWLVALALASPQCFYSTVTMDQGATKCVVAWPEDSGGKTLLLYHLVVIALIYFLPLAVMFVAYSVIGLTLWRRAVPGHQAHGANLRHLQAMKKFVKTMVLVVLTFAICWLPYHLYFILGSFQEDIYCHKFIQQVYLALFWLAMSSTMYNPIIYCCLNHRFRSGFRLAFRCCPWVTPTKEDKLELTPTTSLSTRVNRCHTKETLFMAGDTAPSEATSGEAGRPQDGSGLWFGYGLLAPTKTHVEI

[12] = molecular target: voltage-dependent K+ channel (Homo sapiens, UniProt O43525+O43526+O95259+P16389+P17658+P22001+P22459+P22460+P48547+P51787+P56696+Q03721+Q09470+Q12809+Q14003+Q14721+Q16322+Q6PIU1+Q8NCM2+Q8TAE7+Q8TDN1+Q8TDN2+Q92953+Q96KK3+Q96L42+Q96PR1+Q96RP8+Q9BQ31+Q9H252+Q9H3M0+Q9NR82+Q9NS40+Q9NSA2+Q9NZV8+Q9UIX4+Q9UJ96+Q9UK17+Q9ULD8+Q9ULS6+Q9UQ05); experiment: K+ channel (Volt-dependent) CEREP screen; type: protein assay; settings: compound concentration 10 uM
[13] = molecular target: T2, Glucocorticoid receptor (Homo sapiens) (UniProt P04150); experiment: GR Indigo Bioscience nuclear receptor screen
T2 sequence (whole entry): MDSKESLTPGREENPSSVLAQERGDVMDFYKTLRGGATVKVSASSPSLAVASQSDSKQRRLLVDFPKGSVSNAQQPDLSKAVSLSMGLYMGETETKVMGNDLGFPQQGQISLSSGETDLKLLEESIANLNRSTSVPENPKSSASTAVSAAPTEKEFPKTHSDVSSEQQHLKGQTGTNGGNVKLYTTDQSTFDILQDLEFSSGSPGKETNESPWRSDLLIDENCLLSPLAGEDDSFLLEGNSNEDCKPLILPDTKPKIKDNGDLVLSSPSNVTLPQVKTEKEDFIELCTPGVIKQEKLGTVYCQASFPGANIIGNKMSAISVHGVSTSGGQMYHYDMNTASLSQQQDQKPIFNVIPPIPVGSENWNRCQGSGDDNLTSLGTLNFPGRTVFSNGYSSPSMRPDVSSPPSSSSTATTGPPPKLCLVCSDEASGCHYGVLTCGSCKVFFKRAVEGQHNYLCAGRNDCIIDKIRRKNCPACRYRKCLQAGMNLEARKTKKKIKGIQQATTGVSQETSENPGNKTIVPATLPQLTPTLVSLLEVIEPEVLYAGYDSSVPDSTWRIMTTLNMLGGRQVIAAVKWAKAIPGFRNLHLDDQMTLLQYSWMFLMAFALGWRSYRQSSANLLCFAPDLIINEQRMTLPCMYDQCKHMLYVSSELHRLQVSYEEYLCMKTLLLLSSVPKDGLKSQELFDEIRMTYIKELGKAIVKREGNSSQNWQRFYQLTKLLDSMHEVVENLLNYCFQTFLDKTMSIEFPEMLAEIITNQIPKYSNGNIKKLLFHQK

[14] = molecular target: Vitamin D3 receptor (Homo sapiens) (UniProt P11473); experiment: VDR Indigo Bioscience nuclear receptor screen
Sequence of Vitamin D3 receptor (Homo sapiens) (P11473 whole entry): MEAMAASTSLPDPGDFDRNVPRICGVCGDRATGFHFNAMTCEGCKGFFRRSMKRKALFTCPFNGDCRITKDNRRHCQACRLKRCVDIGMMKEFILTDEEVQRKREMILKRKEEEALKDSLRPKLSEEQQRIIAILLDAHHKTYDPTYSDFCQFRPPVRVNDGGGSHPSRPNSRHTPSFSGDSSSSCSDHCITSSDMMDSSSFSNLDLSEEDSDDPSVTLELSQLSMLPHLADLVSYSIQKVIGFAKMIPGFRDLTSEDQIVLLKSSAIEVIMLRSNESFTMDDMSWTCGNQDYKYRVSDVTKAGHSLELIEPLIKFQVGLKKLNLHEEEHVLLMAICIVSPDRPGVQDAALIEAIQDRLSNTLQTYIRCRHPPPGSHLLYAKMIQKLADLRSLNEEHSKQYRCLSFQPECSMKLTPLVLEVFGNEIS

[15] = molecular target: T3, PXR (nuclear receptor subfamily 1 group I member 2) (Homo sapiens, UniProt O75469); experiment: PXR Indigo Bioscience nuclear receptor screen
T3 sequence (O75469 whole entry): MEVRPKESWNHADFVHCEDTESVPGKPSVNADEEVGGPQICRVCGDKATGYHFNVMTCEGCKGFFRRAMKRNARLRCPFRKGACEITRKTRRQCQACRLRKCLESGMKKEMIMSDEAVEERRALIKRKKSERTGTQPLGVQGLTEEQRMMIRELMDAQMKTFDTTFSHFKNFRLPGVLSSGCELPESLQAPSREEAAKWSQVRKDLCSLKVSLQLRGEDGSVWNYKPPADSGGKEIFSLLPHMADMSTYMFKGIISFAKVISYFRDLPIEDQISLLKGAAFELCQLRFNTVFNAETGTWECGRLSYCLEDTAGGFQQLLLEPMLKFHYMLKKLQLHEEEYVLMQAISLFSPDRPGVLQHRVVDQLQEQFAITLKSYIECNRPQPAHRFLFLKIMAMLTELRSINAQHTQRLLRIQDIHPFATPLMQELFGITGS

[16] = molecular target: D(3) dopamine receptor (Homo sapiens) (UniProt P35462); settings: Compound concentration 10.0 uM
[17] = molecular target: Histamine H1 receptor (Homo sapiens) (UniProt P35367); settings: Compound concentration 10.0 uM
[18] = molecular target: Alpha-2A adrenergic receptor (Homo sapiens) (UniProt P08913); settings: Compound concentration 10.0 uM
Sequence of Alpha-2A adrenergic receptor (Homo sapiens) (P08913 whole entry): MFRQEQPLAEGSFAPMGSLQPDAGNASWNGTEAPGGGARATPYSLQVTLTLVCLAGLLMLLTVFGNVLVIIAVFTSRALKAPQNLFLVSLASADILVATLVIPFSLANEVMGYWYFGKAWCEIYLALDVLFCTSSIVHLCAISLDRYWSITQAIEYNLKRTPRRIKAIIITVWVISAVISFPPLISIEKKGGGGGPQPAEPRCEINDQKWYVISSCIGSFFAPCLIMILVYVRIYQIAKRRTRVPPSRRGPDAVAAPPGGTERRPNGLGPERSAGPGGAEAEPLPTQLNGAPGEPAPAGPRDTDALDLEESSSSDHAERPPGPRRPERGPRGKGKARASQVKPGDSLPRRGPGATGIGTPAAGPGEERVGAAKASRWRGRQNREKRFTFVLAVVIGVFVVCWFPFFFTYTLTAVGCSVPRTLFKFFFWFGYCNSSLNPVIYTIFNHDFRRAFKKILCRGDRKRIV

[19] = molecular target: Alpha-2B adrenergic receptor (Homo sapiens) (UniProt P18089); settings: Compound concentration 10.0 uM
Sequence of Alpha-2B adrenergic receptor (Homo sapiens) (P18089 whole entry): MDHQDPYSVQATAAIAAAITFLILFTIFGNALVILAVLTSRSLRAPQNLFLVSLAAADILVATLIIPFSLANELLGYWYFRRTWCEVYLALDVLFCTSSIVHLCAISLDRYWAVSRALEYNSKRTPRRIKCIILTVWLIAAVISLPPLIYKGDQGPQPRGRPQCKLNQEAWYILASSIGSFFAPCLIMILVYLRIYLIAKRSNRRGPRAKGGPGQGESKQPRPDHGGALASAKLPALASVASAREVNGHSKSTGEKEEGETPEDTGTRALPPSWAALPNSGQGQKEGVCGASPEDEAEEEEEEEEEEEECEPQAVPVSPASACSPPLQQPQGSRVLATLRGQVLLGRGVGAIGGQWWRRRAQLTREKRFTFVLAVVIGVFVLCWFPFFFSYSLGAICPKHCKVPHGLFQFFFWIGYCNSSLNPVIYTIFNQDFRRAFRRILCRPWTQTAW

Sequence of Epidermal growth factor receptor (Homo sapiens) (P00533 whole entry): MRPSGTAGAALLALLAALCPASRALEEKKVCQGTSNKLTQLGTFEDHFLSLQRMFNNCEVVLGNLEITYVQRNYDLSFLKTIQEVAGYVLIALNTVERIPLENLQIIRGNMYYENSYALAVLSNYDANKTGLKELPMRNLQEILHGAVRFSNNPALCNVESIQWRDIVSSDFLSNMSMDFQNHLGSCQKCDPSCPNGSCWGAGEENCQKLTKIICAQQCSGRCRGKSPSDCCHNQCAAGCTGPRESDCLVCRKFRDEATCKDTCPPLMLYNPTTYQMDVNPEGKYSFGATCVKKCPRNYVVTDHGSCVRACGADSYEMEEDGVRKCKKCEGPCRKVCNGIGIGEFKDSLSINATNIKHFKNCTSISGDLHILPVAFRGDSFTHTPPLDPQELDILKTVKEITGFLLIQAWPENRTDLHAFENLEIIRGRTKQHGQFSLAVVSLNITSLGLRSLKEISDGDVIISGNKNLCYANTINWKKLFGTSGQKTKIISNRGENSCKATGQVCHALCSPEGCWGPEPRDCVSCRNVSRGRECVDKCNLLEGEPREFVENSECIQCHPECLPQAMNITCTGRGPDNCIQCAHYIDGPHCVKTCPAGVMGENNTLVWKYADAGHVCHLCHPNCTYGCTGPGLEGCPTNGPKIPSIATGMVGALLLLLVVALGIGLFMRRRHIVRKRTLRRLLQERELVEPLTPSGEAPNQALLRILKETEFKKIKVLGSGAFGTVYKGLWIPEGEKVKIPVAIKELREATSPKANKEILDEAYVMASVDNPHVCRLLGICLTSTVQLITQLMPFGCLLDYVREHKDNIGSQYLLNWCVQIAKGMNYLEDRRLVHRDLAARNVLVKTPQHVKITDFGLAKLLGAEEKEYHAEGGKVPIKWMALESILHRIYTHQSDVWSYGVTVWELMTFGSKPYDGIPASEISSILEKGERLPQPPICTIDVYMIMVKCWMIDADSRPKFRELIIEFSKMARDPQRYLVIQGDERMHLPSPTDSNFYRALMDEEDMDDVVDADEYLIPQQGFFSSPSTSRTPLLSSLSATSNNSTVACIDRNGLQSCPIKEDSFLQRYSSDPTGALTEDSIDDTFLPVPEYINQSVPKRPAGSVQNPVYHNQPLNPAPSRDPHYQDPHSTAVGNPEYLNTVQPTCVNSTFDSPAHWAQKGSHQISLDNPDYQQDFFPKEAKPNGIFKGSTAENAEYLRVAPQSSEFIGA

COc1nc2ccc([C@@](O)(c3ccccc3)C3CCN(C(C)=O)CC3)cc2c(Cl)c1Cc1ccc(-n2cccn2)cc1 [JNJ-54119936]
inhibition [1]: -2%
inhibition [2]: -4%
inhibition [3]: 2%
inhibition [4]: 3%
inhibition [5]: 28.2%
IC50 [6]: 5.4 µM
inhibition [7]: 31.2%
inhibition [8]: 10%
inhibition [9]: 14%
inhibition ([10]; Compound concentration 1.0 uM): 21%
inhibition ([10]; Compound concentration 10.0 uM): 19%
inhibition [11]: 23%
inhibition at 10 µM [12]: 15% (not active)
inhibition ([13]; Compound concentration 0.3 uM): 4.11%
inhibition ([13]; Compound concentration 1.0 uM): 2.23%
inhibition ([13]; Compound concentration 3.0 uM): 12.6%
inhibition ([14]; Compound concentration 0.3 uM): -6.97%
inhibition ([14]; Compound concentration 1.0 uM): -0.284%
inhibition at 0.3 µM ([15]; compound concentration 0.3 uM): -7.63% (not active)
inhibition at 1 µM ([15]; compound concentration 1 uM): -26.4% (not active)
inhibition at 3 µM ([15]; compound concentration 3 uM): 1.01% (not active)
inhibition [16]: -2.36%
inhibition [17]: 38%
inhibition [18]: 20.8%
inhibition [19]: 54.6%

Reference: ChEMBL document CHEMBL4800728, “Data for DCP probe JNJ-54119936” (2021)
